Test results taken from US20210263039A1, “APPLICATION OF NIEMANN-PICK C1 PROTEIN IN DIAGNOSIS AND TREATMENT OF CANCER” (BEIJING PROTEOME RESEARCH CENTER, priority 2018, published 2021).
“And” between values parts separate entries of the source, which are not always exact repeats. Identical values can stand only once.

Assays:
[1] = liver cancer patients; cited from earlier work
[2] = tested on: colon cancer cell line HCT116; assay: CCK8 proliferation experiment, HCT116; type: cell-based, human
Description: (§1) 1) On the first day, after routine trypsinization and counting of cells in a 60 mm culture dish, the cells were seeded onto four 96-well plates at a density of 5000 cells/well.
(§2) 2) On the second day, after about 24 hours of culture, the cell growth was in the logarithmic growth phase and the culture medium was replaced with a new culture medium with different concentrations of SOAT1 inhibitor in a volume of 100 μL/well. 10 μM group, 20 μM group and control group (1‰ DMSO) were set, each group included three repeated wells. 10% CCK8 (100 μL/well) was added to the wells of one 96-well plate, and OD value of 0 h was measured at 450 nm after 1 h, with cell-free wells as background.
(§3) 3) On the third day, 10% CCK8 was added to the wells of one 96-well plate and OD value of 24 h was measured at 450 nm after 1 h.
(§4) 4) On the fourth day, 10% CCK8 was added to the wells of one 96-well plate and OD value of 48 h was measured at 450 nm after 1 h.
(§5) 5) On the fifth day, 10% CCK8 was added to the wells of the last 96-well plate and OD value of 72 h was measured at 450 nm after 1 h.
(§6) 6) OD values at all time points were summarized and a growth curve was drawn.

[3] = tested on: plasma membrane cholesterol; assay: Filipin III-based cholesterol staining of the plasma membrane; type: cell-based
Description: (§7) Reagents: Cholesterol Cell-Based Detection Assay Kit (No10009779) was purchased from Cayman. Human sIL6R ELISA kit (BMS214) was purchased from ebioscience. The relevant experiments were conducted according to the instructions.

STAT3 signaling pathway = STAT3 signaling pathway activation after IL6 stimulation (STAT3-Y705 antibody); type: cell-based
From the text: The conventional western blotting method was adopted.
STAT3-Y705 (EP2147Y) antibody was purchased from Abcam.

IL6R = assay: sIL6R ELISA, shedding of IL6R from the cell membrane; type: cell-based
Description: as §7

liver cancer cells = assay: Migration of liver cancer cells; type: cell-based
[4] = tested on: PLC/PRF/5 liver cancer cell line; assay: CCK8 proliferation experiment, PLC/PRF/5; type: cell-based, human; settings: inhibitor 10 μM and 20 μM groups vs 1‰ DMSO, OD 450 nm at 0-72 h
Description: (§8) 1) On the first day, PLC/PRF/5 or HepG2 cells were seeded onto a 6-well plate.
(§9) 2) On the second day, when the cell confluence was about 40-50%, NPC1-sh or NPC1-control lentivirus was added at 200 μl/well for virus infection.
(§10) 3) On the third day, puromycin was added to infected PLC/PRF/5 or HepG2 cells to a final concentration of 2 μg/mL for selection.
(§11) 4) On the sixth day, part of the cells was collected according to the conventional method for CCK8 experiment, and part of the cells were lysed to obtain proteins and subjected to Western blotting. […]
(§12) 2) On the second day, after about 24 hours of culture, the cell growth was in the logarithmic growth phase and the culture medium was replaced with a new culture medium with different concentrations of SOAT1 inhibitor in a volume of 100 μL/well. […] 10% CCK8 (100 μL/well) was added to the wells of one 96-well plate, and OD value of 0 h was measured at 450 nm after 1 h, with cell-free wells as background.
as §3, §4
(§13) 5) On the fifth day, 10% CCK8 was added to the wells of the last 96-well plate and OD value of 72 h was measured at 450 nm after 1 h. […]

[5] = tested on: Huh7 liver cancer cell line; assay: CCK8 proliferation experiment, Huh7; type: cell-based, human; settings: inhibitor 10 μM and 20 μM groups vs 1‰ DMSO, OD 450 nm at 0-72 h
Description: as §1, §2, §3, §4, §5, §6

[6] = tested on: HepG2 liver cancer cell line; assay: CCK8 proliferation experiment, HepG2; type: cell-based, human; settings: inhibitor 10 μM and 20 μM groups vs 1‰ DMSO, OD 450 nm at 0-72 h
Description: as §8, §9, §10, §11, §12, §3, §4, §13

[7] = tested on: esophageal cancer cell line ECA109; assay: CCK8 proliferation experiment, ECA109; type: cell-based, human
Description: as §1, §2, §3, §4, §5, §6

[8] = tested on: cervical cancer cell line Hela; assay: CCK8 proliferation experiment, Hela; type: cell-based, human
Description: as §1, §2, §3, §4, §5, §6

[9] = tested on: human hepatocarcinoma HepG2 liver orthotopic transplantation tumors; assay: Liver orthotopic transplantation tumors in nude mice bearing human hepatocarcinoma HepG2 cells; type: in vivo
From the text: A total of 30 female Nu/Nu nude mice aged 5-7 weeks and weighing 18.0-21.0 g were purchased from Beijing Vital River Laboratory Animal Technology Co., Ltd., animal certificate was SCXK (JING)-2015-0001. The test animals were kept in sterile independent ventilation cages (IVC), with 5-6 mice per cage. The litter was corncob litter sterilized by ^60Co radiation, with a particle size of 4-6 mm. The animals were fed with sterilized feed specially formulated for mice and were given pure water to drink freely. The temperature in the animal laboratory was maintained at about 25° C., the relative humidity was maintained at 40-70%, and the daily light was 12 hours.
The cells in the logarithmic growth phase were digested with trypsin and collected, washed and resuspended with normal saline, so that the final cell concentration was about 1×10^7 cells/ml suspension. 0.2 ml of tumor cell suspension was injected under the skin of the right forelimb axillary in nude mice, and the tumor-bearing nude mice were established for passage and preservation.
When the subcutaneous tumor volume of the nude mice for preservation grew to 1000-1500 mm^3, tumors were removed and cut into tumor blocks of about 1.0 mm^3 for use under aseptic conditions. The nude mice to be operated were anesthetized and fixed on the operating table, and the abdominal skin was disinfected. An incision of about 1 cm was made in the upper right abdomen to expose the liver and the animal was covered with surgical drapes. The prepared tumor block was put into a special inoculation trocar, the tumor block was implanted into the liver with the trocar, and the bleeding wound was treated with a sterile cotton swab to stop bleeding. Then the liver after the operation was put back into the abdominal cavity of the mouse, and the abdominal muscles and skin of the incision were sutured sequentially with No. 4/0 surgical suture needle.
The experiment preset model control group and U18666A group.
Model animals were examined by B-ultrasound 3 weeks after operation, and grouped randomly according to B-ultrasound results. The test drug U18666A was administered intraperitoneally, once a day.
After the experiment, the animals were sacrificed by cervical dislocation. The liver was dissected, and the tumors visible to the naked eye were removed and weighed. All dissected tissues were preserved in a 4% formaldehyde solution for routine pathological examination.
Data were represented as x±SD; Tumor growth inhibition rate=(tumor weight in the control group−tumor weight in the administration group)/tumor weight in the control group×100%. All analyses were completed with GrghPad Prism software, and P<0.05 was considered to indicate a significant difference.

[10] = tested on: MHCC97H liver cancer cell line; assay: CCK8 proliferation experiment, MHCC97H; type: cell-based, human; settings: inhibitor 10 μM and 20 μM groups vs 1‰ DMSO, OD 450 nm at 0-72 h
Description: as §1, §2, §3, §4, §5, §6

[11] = tested on: leukemia cell line Jurkat; assay: CCK8 proliferation experiment, Jurkat; type: cell-based, human
Description: as §1, §2, §3, §4, §5, §6

[12] = tested on: non-small cell lung cancer cell line A549; assay: CCK8 proliferation experiment, A549; type: cell-based, human
Description: as §1, §2, §3, §4, §5, §6

SMILES | prolongation of the survival period of patients [1] [months] | proliferation of common cancer cell lines [2] | plasma membrane cholesterol [3] | activation of STAT3 signaling pathway (STAT3 signaling pathway) | shedding of IL6R receptor on the cell membrane (IL6R) | migration of liver cancer cells (liver cancer cells) | proliferation of liver cancer cells (CCK8 growth curve) [4] | proliferation of liver cancer cells (CCK8 growth curve) [5] | proliferation of liver cancer cells (CCK8 growth curve) [6] | proliferation of common cancer cell lines [7] | proliferation of common cancer cell lines [8] | Average weight (g) Begining ([9]; body weight at beginning, nude mice, x±SD) [g] | Average weight (g) End ([9]; body weight at end, i.p., 20 mg/kg, once a day, 23 days, x±SD) [g] | Tumor growth inhibition rate (%) ([9]; by tumor weight vs control group, i.p., 20 mg/kg, once a day, 23 days) | Tumor weight ([9]; group mean x±SD, i.p., 20 mg/kg, once a day, 23 days) [g] | Tumor weight (g), individual tumors ([9]; single animals of the group, i.p., 20 mg/kg, once a day, 23 days, 20 mg/kg) | proliferation of liver cancer cells (CCK8 growth curve) [10] | proliferation of common cancer cell lines [11] | proliferation of common cancer cell lines [12]
CNC(=O)c1cc(Oc2ccc(NC(=O)Nc3ccc(Cl)c(C(F)(F)F)c3)cc2)ccn1 [Sorafenib] | 3 | – | – | – | – | – | – | – | – | – | – | – | – | – | – | – | – | – | –
CCN(CC)CCO[C@H]1CC[C@@]2(C)C(=CC[C@@H]3[C@@H]2CC[C@]2(C)C(=O)CC[C@@H]32)C1.Cl [U18666A] | – | significantly inhibited the proliferation | significantly down-regulated | blocked | increased shedding | significantly inhibit | significantly inhibit the proliferation | significantly inhibit the proliferation | significantly inhibit the proliferation | significantly inhibited the proliferation | significantly inhibited the proliferation | 23.74 ± 0.86 | 23.34 ± 2.29 | 62.1 | 0.3574 ± 0.3914 | 0.0333 g and 0.0916 g and 0.0957 g and 0.0958 g and 0.1653 g and 0.3852 g and 0.5450 g and 0.5512 g and 1.2533 g | significantly inhibit the proliferation | significantly inhibited the proliferation | significantly inhibited the proliferation
